Legend:
BRD4-BD2 = molecular target: T1, BRD4-BD2 (Homo sapiens, UniProt O60885); experiment: bromoKdELECT assay for binding affinity to BRD4-BD2; conditions: Table 7
T1 construct: made in house; host or cells: T7 phage grown in an E. coli host derived from BL21
Method: Compounds were tested using a bromoKdELECT assay. T7 phage strains displaying bromodomains were grown in parallel in 24-well blocks in an E. coli host derived from the BL21 strain. E. coli were grown to log-phase and infected with T7 phage from a frozen stock (multiplicity of infection=0.4) and incubated with shaking at 32° C. until lysis (90-150 minutes). The lysates were centrifuged (5,000×g) and filtered (0.2 μm) to remove cell debris. Streptavidin-coated magnetic beads were treated with biotinylated small molecule or acetylated peptide ligands for 30 minutes at room temperature to generate affinity resins for bromodomain assays. The liganded beads were blocked with excess biotin and washed with blocking buffer (SeaBlock (Pierce), 1% BSA, 0.05% Tween 20, 1 mM DTT) to remove unbound ligand and to reduce nonspecific phage binding. Binding reactions were assembled by combining bromodomains, liganded affinity beads, and test compounds in 1× binding buffer (17% SeaBlock, 0.33×PBS, 0.04% Tween 20, 0.02% BSA, 0.004% Sodium azide, 7.4 mM DTT). Test compounds were prepared as 1000× stocks in 100% DMSO. Kds were determined using an 11-point 3-fold compound dilution series with one DMSO control point. All compounds for Kd measurements are distributed by acoustic transfer (non-contact dispensing) in 100% DMSO. The compounds were then diluted directly into the assays such that the final concentration of DMSO was 0.09%. All reactions performed in polypropylene 384-well plates. Each was a final volume of 0.02 ml. The assay plates were incubated at room temperature with shaking for 1 hour and the affinity beads were washed with wash buffer (1×PBS, 0.05% Tween 20). The beads were then resuspended in elution buffer (1×PBS, 0.05% Tween 20, 2 μM non-biotinylated affinity ligand) and incubated at room temperature with shaking for 30 minutes. The bromodomain concentration in the eluates was measured by qPCR.

progesterone receptor = molecular target: T2, progesterone receptor (Homo sapiens, UniProt P06401); experiment: PR Human Progesterone NHR Binding (Agonist Radioligand) Assay, T47D cytosol; conditions: T47D cytosolic fractions, 0.5 nM [3H]progesterone, 1 hour at 4° C., Table 16
T2 construct: host or cells: T47D cells (cytosolic fraction)
T2 sequence (P06401 1-933): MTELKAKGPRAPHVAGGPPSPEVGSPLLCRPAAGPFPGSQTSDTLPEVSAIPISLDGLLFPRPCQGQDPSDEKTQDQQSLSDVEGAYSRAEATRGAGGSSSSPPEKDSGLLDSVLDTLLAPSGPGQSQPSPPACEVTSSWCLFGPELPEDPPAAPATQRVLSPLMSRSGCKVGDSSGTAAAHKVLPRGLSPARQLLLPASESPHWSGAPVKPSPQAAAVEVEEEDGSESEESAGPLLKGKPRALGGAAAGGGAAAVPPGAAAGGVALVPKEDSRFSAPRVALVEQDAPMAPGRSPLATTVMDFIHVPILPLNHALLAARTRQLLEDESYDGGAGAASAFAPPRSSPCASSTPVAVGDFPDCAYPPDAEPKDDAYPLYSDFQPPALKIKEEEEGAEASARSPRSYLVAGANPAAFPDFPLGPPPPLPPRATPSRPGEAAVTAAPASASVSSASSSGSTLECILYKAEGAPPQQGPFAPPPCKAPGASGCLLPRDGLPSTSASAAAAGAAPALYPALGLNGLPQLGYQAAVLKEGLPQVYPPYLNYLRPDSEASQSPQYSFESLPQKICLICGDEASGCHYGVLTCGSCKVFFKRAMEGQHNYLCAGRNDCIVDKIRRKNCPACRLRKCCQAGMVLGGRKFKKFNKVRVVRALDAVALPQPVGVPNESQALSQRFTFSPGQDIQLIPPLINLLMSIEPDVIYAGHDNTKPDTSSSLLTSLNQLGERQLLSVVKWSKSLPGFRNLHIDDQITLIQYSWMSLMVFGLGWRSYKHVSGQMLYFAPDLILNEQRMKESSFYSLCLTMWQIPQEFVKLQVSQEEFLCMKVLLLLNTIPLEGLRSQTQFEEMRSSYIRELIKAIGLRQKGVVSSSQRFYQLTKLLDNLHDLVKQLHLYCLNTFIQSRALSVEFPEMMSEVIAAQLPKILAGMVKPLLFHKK
Method: Compounds were tested using the PR Human Progesterone NHR Binding (Agonist Radioligand) Assay, Cerep at Eurofins Discovery using a modified version of the protocol from Sarup et al. (Cancer Res 1988; 48:5071-5078). Briefly, cytosolic fractions of T47D cells were incubated with 0.5 nM [^3H]progesterone for 1 hour at 4° C. in the absence or presence of the test compound. Nonspecific binding was determined in the presence of 1 μM promegestone. Reactions were subjected to scintillation counting. Results are expressed as a percent inhibition of the control radioligand specific binding.

[1] = molecular target: T3, progesterone receptor ligand binding domain (LBD) (Homo sapiens, UniProt P06401); experiment: FP assay (PolarScreen Progesterone Receptor Competitor Assay) for binding to progesterone receptor LBD; conditions: GST-tagged PR LBD, Fluormone tracer, fluorescence polarization, 2 hours; Table 17
T3 construct: GST-tagged PR LBD, Fluormone tracer, and compound were mixed; purchased Life Technologies A15905 or a15906
T3 sequence (P06401 679-913 limits assumed): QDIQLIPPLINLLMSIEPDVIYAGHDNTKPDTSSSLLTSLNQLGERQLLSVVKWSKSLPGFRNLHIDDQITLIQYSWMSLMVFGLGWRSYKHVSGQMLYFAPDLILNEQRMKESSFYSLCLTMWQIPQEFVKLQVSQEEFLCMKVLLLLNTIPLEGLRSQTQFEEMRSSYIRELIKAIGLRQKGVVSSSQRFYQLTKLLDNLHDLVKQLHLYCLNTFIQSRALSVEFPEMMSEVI
Method: Compounds were tested using the PolarScreen™ Progesterone Receptor Competitor Assay Kit (Life Technologies Cat #A15905 or a15906), as per the manufacturer's instructions. Briefly, GST-tagged PR LBD, Fluormone tracer, and compound were mixed and incubated for 2 hours at room temperature in the dark. Following incubation, the plates were spun at 3000×g for 30 seconds, then sealed with an optical adhesive cover, and fluorescence polarization was measured using appropriate excitation and emission filters with an EnVision Plate Reader (Perkin Elmer). Compound concentration vs. mP value were plotted in Prism (GraphPad). A four-parameter non-linear regression curve fit was applied to dose-response data to determine the half-maximal inhibitory concentration (IC50) for each test compound.

Row | SMILES | Kd (BRD4-BD2) | Ki (progesterone receptor) | IC50 [1]
1 | Cc1sc2c(c1C)C(c1ccc(OCCOC3CCN(c4ncc(C(=O)N[C@H]5C(C)(C)[C@H](Oc6ccc(C#N)c(Cl)c6)C5(C)C)cn4)CC3)cc1)=N[C@@H](CC(=O)OC(C)(C)C)c1nnc(C)n1-2 [Compound I-235, tert-butyl 2-((S)-4-(4-(2-((1-(5-(((1r,3r)-3-(3-chloro-4-cyanophenoxy)-2,2,4,4-tetramethylcyclobutyl)carbamoyl)pyrimidin-2-yl)piperidin-4-yl)oxy)ethoxy)phenyl)-2,3,9-trimethyl-6H-thieno[3,2-f][1,2,4]triazolo[4,3-a][1,4]diazepin-6-yl)acetate] | > 2500 nM | < 50 nM | < 50 nM
2 | CCNC(=O)C[C@@H]1N=C(c2ccc(OCC3CN(c4ncc(C(=O)N[C@H]5C(C)(C)[C@H](Oc6ccc(C#N)c(Cl)c6)C5(C)C)cn4)C3)cc2)c2c(sc(C)c2C)-n2c(C)nnc21 [Compound I-71] | < 50 nM | < 50 nM | 
3 | Cc1sc2c(c1C)C(c1ccc(OC3CC4(CCN(c5ncc(C(=O)N[C@H]6C(C)(C)[C@H](Oc7ccc(C#N)c(Cl)c7)C6(C)C)cn5)CC4)C3)cc1)=NC(Cc1ncco1)c1nnc(C)n1-2 (stereo partly shown) [Compound I-166] |  |  | 50 to 500 nM
4 | CCNC(=O)C[C@@H]1N=C(c2ccc(N3CCC(OC4CCN(c5ncc(C(=O)N[C@H]6C(C)(C)[C@H](Oc7ccc(C#N)c(Cl)c7)C6(C)C)cn5)CC4)CC3)cc2)c2c(sc(C)c2C)-n2c(C)nnc21 [Compound I-114] | 500 to 2500 nM | < 50 nM | 
5 | CCNC(=O)C[C@@H]1N=C(c2ccc(N(C)C3CC(OC4CCN(c5ncc(C(=O)N[C@H]6C(C)(C)[C@H](Oc7ccc(C#N)c(Cl)c7)C6(C)C)cn5)CC4)C3)cc2)c2c(sc(C)c2C)-n2c(C)nnc21 (stereo partly shown) [Compound I-130] |  |  | < 50 nM
6 | CCNC(=O)C[C@@H]1N=C(c2ccc(N(C3CC3)C3CN(CC4CCN(c5ncc(C(=O)N[C@H]6C(C)(C)[C@H](Oc7ccc(C#N)c(Cl)c7)C6(C)C)cn5)CC4)C3)cc2)c2c(sc(C)c2C)-n2c(C)nnc21 [Compound I-129] |  |  | < 50 nM
7 | CCNC(=O)C[C@@H]1N=C(c2ccc(N3CCN(CC4CCN(c5ncc(C(=O)N[C@H]6C(C)(C)[C@H](Oc7ccc(C#N)c(Cl)c7)C6(C)C)cn5)CC4)CC3)cc2)c2c(sc(C)c2C)-n2c(C)nnc21 [Compound I-105, N-[3-(3-chloro-4-cyano-phenoxy)-2,2,4,4-tetramethyl-cyclobutyl]-2-[4-[[4-[4-[(9S)-9-[2-(ethylamino)-2-oxo-ethyl]-4,5,13-trimethyl-3-thia-1,8,11,12-tetrazatricyclo[8.3.0.02,6]trideca-2(6),4,7,10,12-pentaen-7-yl]phenyl]piperazin-1-yl]methyl]-1-piperidyl]pyrimidine-5-carboxamide] | 50 to 500 nM |  | 50 to 500 nM
8 | CCNC(=O)C[C@@H]1N=C(c2ccc(CCCN(C)c3ncc(C(=O)N[C@H]4C(C)(C)[C@H](Oc5ccc(C#N)c(Cl)c5)C4(C)C)cn3)cc2)c2c(sc(C)c2C)-n2c(C)nnc21 [Compound I-104] |  |  | 50 to 500 nM
